Legend:
Experiment in all cases: relative viability (nuclei count vs DMSO), 5 days (fraction); higher = more cells survive
Afatinib + Tozasertib = compound: CN(C)C/C=C/C(=O)Nc1cc2c(Nc3ccc(F)c(Cl)c3)ncnc2cc1O[C@H]1CCOC1 [Afatinib] + Cc1cc(Nc2cc(N3CCN(C)CC3)nc(Sc3ccc(NC(=O)C4CC4)cc3)n2)n[nH]1 [Tozasertib] (partner 0.1 µM)
Method in brief: (§1)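 Cells from lung cancer lines were seeded into 1536-well plates and, one day later, dosed by pin tool. Treatments were either a single drug or a fixed dose of an anchor drug with five library-drug doses (not always all listed) in √10 steps. After 5 days, nuclei were stained in a one-step fixation (final 0.05% Triton X-100, 1% formaldehyde, 1 ug/ml Hoechst) and counted on 4× images, and relative viability is the treated-to-vehicle nuclei ratio, as the median of duplicate plates.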

Afatinib + AZD7762 = compound: CN(C)C/C=C/C(=O)Nc1cc2c(Nc3ccc(F)c(Cl)c3)ncnc2cc1O[C@H]1CCOC1 [Afatinib] + NC(=O)Nc1cc(-c2cccc(F)c2)sc1C(=O)N[C@H]1CCCNC1 [AZD7762] (partner 0.2 µM)
Method in brief: as §1

Afatinib + Trametinib = compound: CN(C)C/C=C/C(=O)Nc1cc2c(Nc3ccc(F)c(Cl)c3)ncnc2cc1O[C@H]1CCOC1 [Afatinib] + CC(=O)Nc1cccc(-n2c(=O)n(C3CC3)c(=O)c3c(Nc4ccc(I)cc4F)n(C)c(=O)c(C)c32)c1 [Trametinib] (partner 0.02 µM)
Method in brief: as §1

Afatinib = compound: CN(C)C/C=C/C(=O)Nc1cc2c(Nc3ccc(F)c(Cl)c3)ncnc2cc1O[C@H]1CCOC1 [Afatinib]
Method in brief: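 After an overnight hold at 37 °C, lung cancer cell lines in 1536-well plates were pinned with five library-drug doses (not always all listed), each √10 from the next, on vehicle-anchored plates. The cells stayed 5 days without fresh medium, then a one-step fix, permeabilisation and Hoechst stain preceded 4× imaging and MetaXpress nuclear counts. A plate passed only with control CV under 25% and at least one doubling. Viability is the median, over plates, of treated-well nuclei relative to vehicle-well nuclei.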

Cell Line	relative viability (Afatinib + Tozasertib; first compound 0.005 µM)	relative viability (Afatinib + Tozasertib; first compound 0.01581 µM)	relative viability (Afatinib + Tozasertib; first compound 0.05 µM)	relative viability (Afatinib + Tozasertib; first compound 0.1581 µM)	relative viability (Afatinib + Tozasertib; first compound 0.5 µM)	relative viability (Afatinib + AZD7762; first compound 0.005 µM)	relative viability (Afatinib + AZD7762; first compound 0.01581 µM)	relative viability (Afatinib + AZD7762; first compound 0.05 µM)	relative viability (Afatinib + AZD7762; first compound 0.1581 µM)	relative viability (Afatinib + AZD7762; first compound 0.5 µM)	relative viability (Afatinib + Trametinib; first compound 0.005 µM)	relative viability (Afatinib + Trametinib; first compound 0.01581 µM)	relative viability (Afatinib + Trametinib; first compound 0.05 µM)	relative viability (Afatinib + Trametinib; first compound 0.1581 µM)	relative viability (Afatinib + Trametinib; first compound 0.5 µM)	relative viability (Afatinib; 0.005 µM)	relative viability (Afatinib; 0.01581 µM)	relative viability (Afatinib; 0.05 µM)	relative viability (Afatinib; 0.1581 µM)	relative viability (Afatinib; 0.5 µM)
LK-2	0.161	0.173	0.2	0.182	0.166	0.465	0.328	0.371	0.329	0.521	0.908	0.846	0.633	0.78	0.73	1.25	0.91	0.926	0.977	0.956
NCI-H1993	0.556	0.582	0.601	0.617	0.549	0.548	0.521	0.544	0.432	0.416	0.593	0.442	0.58	0.546	0.53	0.935	0.75	0.84	0.776	0.692
NCI-H838	0.29	0.264	0.282	0.222	0.276	0.801	0.946	0.915	0.968	0.953	0.585	0.434	0.523	0.525	0.685	1.01	0.966	0.988	0.918	1.05
NCI-H1437	0.416	0.43	0.41	0.397	0.412	1.11	1.05	1.19	1.09	1.2	0.434	0.413	0.472	0.414	0.434	1.02	0.987	0.993	0.984	0.997
NCI-H2170	0.651	0.574	0.355	0.221	0.203	0.66	0.55	0.245	0.144	0.151	0.892	0.853	0.615	0.169	0.156	0.907	0.837	0.445	0.276	0.253
NCI-H1648	0.734	0.624	0.592	0.241	0.311	0.735	0.596	0.531	0.58	0.546	0.423	0.462	0.316	0.287	0.246	0.881	0.765	0.437	0.478	0.457
LCLC-103H	0.425	0.508	0.441	0.516	0.49	0.758	0.814	0.758	0.781	0.78	0.602	0.698	0.736	0.634	0.697	0.962	0.945	0.974	0.945	1.03
NCI-H441	0.757	0.788	0.67	0.532	0.494	1.56	0.993	1.09	1.16	1.1	0.536	0.347	0.396	0.325	0.384	1.08	0.997	1.18	0.982	0.948
BEN	0.461	0.512	0.57	0.475	0.494	0.618	0.704	0.648	0.642	0.636	1.01	1.1	1.11	0.948	1.01	1.04	0.897	1.05	1.09	1.06
LC-2-ad	0.507	0.48	0.439	0.483	0.431	0.782	0.713	0.559	0.411	0.46	0.954	0.914	0.92	0.832	0.87	1.06	0.957	1.04	0.956	1.05
RERF-LC-KJ	0.502	0.611	0.575	0.424	0.484	1.01	0.827	0.865	0.84	0.778	0.852	0.806	0.723	0.684	0.674	0.92	0.938	0.908	0.794	0.831
SW 900	0.576	0.646	0.61	0.438	0.444	0.48	0.546	0.615	0.501	0.548	0.572	0.657	0.759	0.745	0.581	0.951	0.692	0.844	0.872	0.828
NCI-H1915	0.522	0.46	0.414	0.427	0.419	0.67	0.708	0.685	0.723	0.682	0.309	0.304	0.314	0.3	0.301	1.06	0.988	1	0.973	0.922
NCI-H596	0.848	0.881	0.92	0.777	0.772	1.06	1.01	1.11	1.09	0.901	0.783	0.725	0.834	0.782	0.797	1.09	0.913	0.933	0.936	0.928
NCI-H2126	0.852	0.813	0.668	0.571	0.632	1.02	1.02	0.822	0.776	0.793	0.529	0.585	0.493	0.462	0.459	1.01	0.932	0.816	0.679	0.693
LXF-289	0.146	0.146	0.2	0.152	0.214	1.05	1.03	1.11	1.02	1.02	0.702	0.716	0.616	0.613	0.647	1.01	0.97	0.947	0.94	0.94

Cell Line	relative viability (Afatinib + Tozasertib; first compound 0.005 µM)	relative viability (Afatinib + Tozasertib; first compound 0.01581 µM)	relative viability (Afatinib + Tozasertib; first compound 0.05 µM)	relative viability (Afatinib + Tozasertib; first compound 0.1581 µM)	relative viability (Afatinib + Tozasertib; first compound 0.5 µM)	relative viability (Afatinib + AZD7762; first compound 0.005 µM)	relative viability (Afatinib + AZD7762; first compound 0.01581 µM)	relative viability (Afatinib + AZD7762; first compound 0.05 µM)	relative viability (Afatinib + AZD7762; first compound 0.1581 µM)	relative viability (Afatinib + AZD7762; first compound 0.5 µM)	relative viability (Afatinib + Trametinib; first compound 0.005 µM)	relative viability (Afatinib + Trametinib; first compound 0.01581 µM)	relative viability (Afatinib + Trametinib; first compound 0.05 µM)	relative viability (Afatinib + Trametinib; first compound 0.1581 µM)	relative viability (Afatinib + Trametinib; first compound 0.5 µM)	relative viability (Afatinib; 0.005 µM)	relative viability (Afatinib; 0.01581 µM)	relative viability (Afatinib; 0.05 µM)	relative viability (Afatinib; 0.1581 µM)	relative viability (Afatinib; 0.5 µM)
HCC-44	1.18	1.02	1	0.946	0.897	0.98	0.973	1.07	1	0.959	1.04	1.09	1.01	1.04	1.12	1.08	1	1.01	1.02	0.982
PC-14	0.228	0.257	0.254	0.232	0.247	0.235	0.157	0.139	0.166	0.14	0.101	0.103	0.117	0.0763	0.0964	0.371	0.224	0.298	–	0.282
HOP-62	0.43	0.347	0.385	0.37	0.435	0.561	0.512	0.571	0.64	0.471	0.354	0.38	0.419	0.333	0.378	1.12	0.989	1.05	1.03	1.08
NCI-H358	0.0992	0.111	0.0922	0.0887	0.076	0.406	0.373	0.284	0.273	0.22	0.119	0.115	0.13	0.102	0.127	0.825	0.566	0.455	0.282	0.302
NCI-H1666	0.673	0.621	0.596	0.519	0.551	0.824	0.776	0.824	0.608	0.76	0.673	0.648	0.776	0.815	0.791	0.95	0.894	0.75	0.707	0.801
NCI-H1355	0.577	0.517	0.522	0.501	0.464	0.71	0.765	0.779	0.645	0.748	0.366	0.428	0.381	0.306	0.341	0.976	0.959	0.943	0.849	0.893
HCC-827	0.0972	0.11	0.112	0.131	0.112	0.11	0.119	0.125	0.121	0.0942	0.16	0.165	0.179	0.161	0.15	0.172	0.169	0.212	0.175	0.162
HARA	0.0895	0.0918	0.0646	0.0722	0.062	–	–	0.225	0.217	0.287	0.417	–	0.38	0.311	0.38	0.947	0.55	0.471	0.62	0.597
HCC-366	0.122	0.143	0.0823	0.0878	0.069	0.194	0.285	0.259	0.337	0.264	0.361	0.247	0.353	0.293	0.29	1.03	1.04	1.03	0.985	0.989
NCI-H322M	0.386	0.329	0.307	0.304	0.313	0.433	0.407	0.389	0.402	0.348	0.492	0.463	0.458	0.43	0.442	0.705	0.495	0.533	0.545	0.419
NCI-H2347	0.509	0.593	0.596	0.484	0.603	0.568	0.738	0.589	0.725	0.541	0.27	0.292	0.277	0.275	0.283	1.07	1.02	0.976	0.961	0.994
NCI-H1975	0.7	0.702	0.641	0.268	0.218	0.867	0.676	0.538	0.43	0.312	0.342	0.288	0.407	0.242	0.195	0.945	0.851	0.79	0.479	0.336
NCI-H522	0.512	0.535	0.521	0.449	0.401	0.76	0.812	0.817	0.767	0.748	0.58	0.781	0.79	0.667	0.545	0.929	0.785	0.703	0.786	0.735
A-427	0.204	0.193	0.192	0.173	0.225	0.587	0.705	0.823	0.676	0.698	0.702	0.686	0.733	0.812	0.633	1.05	0.918	0.99	1.02	1.01
LCLC-97TM1	0.248	0.247	0.159	0.268	0.179	0.164	0.259	0.186	0.42	0.18	0.17	0.215	–	0.153	0.171	1.1	0.878	1.01	0.993	0.943
